Measurements as given in patent US10738040B2, “Compounds, compositions, and methods for increasing CFTR activity” (Proteostasis Therapeutics, Inc., priority 2014, dated 2020).

Molecular target: T1, ΔF508-CFTR (Homo sapiens, UniProt P13569, DEL508-508)
T1 construct: Primary lung epithelial cells homozygous for the Cystic Fibrosis-causing ΔF508 mutation were differentiated; endogenous in cells; host or cells: primary human lung (bronchial) epithelial cells homozygous for ΔF508, differentiated at air-liquid interface
T1 sequence (P13569 with tags, fused parts or gaps DEL508-508): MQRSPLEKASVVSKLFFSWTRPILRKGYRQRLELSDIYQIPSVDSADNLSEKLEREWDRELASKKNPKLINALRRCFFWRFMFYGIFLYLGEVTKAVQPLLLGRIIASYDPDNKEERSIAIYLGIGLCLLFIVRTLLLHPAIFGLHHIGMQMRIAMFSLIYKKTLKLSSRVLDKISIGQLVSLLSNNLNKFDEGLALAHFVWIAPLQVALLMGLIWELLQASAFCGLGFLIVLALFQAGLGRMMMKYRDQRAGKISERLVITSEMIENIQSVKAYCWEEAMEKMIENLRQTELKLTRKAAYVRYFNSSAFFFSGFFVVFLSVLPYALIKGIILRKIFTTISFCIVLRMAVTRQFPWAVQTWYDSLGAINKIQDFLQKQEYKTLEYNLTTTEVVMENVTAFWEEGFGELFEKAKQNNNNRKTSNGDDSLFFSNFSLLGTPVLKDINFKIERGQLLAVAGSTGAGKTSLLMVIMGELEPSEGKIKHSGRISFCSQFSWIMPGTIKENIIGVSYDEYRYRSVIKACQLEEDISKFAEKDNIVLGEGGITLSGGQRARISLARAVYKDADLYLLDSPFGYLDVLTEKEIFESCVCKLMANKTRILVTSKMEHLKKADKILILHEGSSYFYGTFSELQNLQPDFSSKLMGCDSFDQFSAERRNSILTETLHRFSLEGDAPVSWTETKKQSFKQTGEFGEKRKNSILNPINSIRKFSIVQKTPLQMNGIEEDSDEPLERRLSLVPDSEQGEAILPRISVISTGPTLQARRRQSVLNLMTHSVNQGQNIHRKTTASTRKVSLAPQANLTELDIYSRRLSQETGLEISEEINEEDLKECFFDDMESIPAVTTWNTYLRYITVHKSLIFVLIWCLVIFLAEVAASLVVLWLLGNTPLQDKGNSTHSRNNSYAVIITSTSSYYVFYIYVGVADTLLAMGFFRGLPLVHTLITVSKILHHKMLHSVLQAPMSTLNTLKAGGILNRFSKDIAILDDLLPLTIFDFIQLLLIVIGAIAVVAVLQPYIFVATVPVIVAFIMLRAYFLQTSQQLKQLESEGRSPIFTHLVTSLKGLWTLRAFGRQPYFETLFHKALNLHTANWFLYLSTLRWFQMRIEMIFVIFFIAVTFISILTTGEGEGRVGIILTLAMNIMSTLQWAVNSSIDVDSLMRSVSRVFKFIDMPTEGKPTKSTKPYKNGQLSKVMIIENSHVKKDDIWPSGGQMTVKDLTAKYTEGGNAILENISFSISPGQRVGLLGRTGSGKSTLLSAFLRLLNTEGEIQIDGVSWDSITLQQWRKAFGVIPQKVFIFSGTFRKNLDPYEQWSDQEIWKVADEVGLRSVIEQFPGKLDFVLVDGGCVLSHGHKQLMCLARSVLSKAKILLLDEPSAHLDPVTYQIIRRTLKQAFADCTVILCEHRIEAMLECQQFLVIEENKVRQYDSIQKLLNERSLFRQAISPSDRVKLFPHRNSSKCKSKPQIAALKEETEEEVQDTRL
Assay: hBE equivalent current (Ieq) assay
Format: cell-based
Conditions: compound at 10 uM and VX-809 at 1 uM, relative to VX-809 (1 uM); primary lung epithelial cells homozygous for ΔF508, 24 hours treatment; AUC of equivalent chloride current
Experimental: ii. hBE Equivalent Current (Ieq) Assay
Primary lung epithelial cells homozygous for the Cystic Fibrosis-causing ΔF508 mutation were differentiated for a minimum of 4 weeks in an air-liquid interface on Costar 24 well HTS filter plates prior to the equivalent current (Ieq) measurements. Cells were apically mucus-washed for 30 minutes 24 h prior to treatment with compounds. The basolateral media was removed and replaced with media containing the compound of interest diluted to its final concentration from DMSO stocks. Treated cells were incubated at 37° C. and 5% CO2 for 24 hours. At the end of the treatment period, the media was changed to the Ieq experimental solution for 30 minutes before the experiment and plates are maintained in a CO2-free incubator during this period. The plates containing the cells were then placed in pre-warmed heating blocks at 36° ° C.±0.5 for 15 minutes before measurements are taken. The transepithelial voltage (VT) and conductance (GT) were measured using a custom 24 channel current clamp (TECC-24) with 24 well electrode manifold. The Ieq assay measurements were made following additions with standardized time periods: • 1. The baseline VT and GT values were measured for approximately 20 minutes. • 2. Benzamil was added to block ENaC for 15 minutes. • 3. Forskolin plus VX-770 (ivacaftor) were added to maximally activate ΔF508-CFTR for 27 minutes. • 4. Bumetanide was added to inhibit the NaK2Cl cotransporter and shut-off secretion of chloride.
The activity data captured was the area under the curve (AUC) for the traces of the equivalent chloride current. The AUC was collected from the time of the forskolin/VX-770 addition until the inhibition by bumetanide addition. Correction in response to compound treatment was scored as the increase in the AUC for compound-treated samples over that of vehicle-treated samples.

SMILES | Ieq (% VX-809)
C[C@@H](O)c1nnc(C2CC(NC(=O)c3cc(-c4ccccc4F)on3)C2)o1 (stereo partly drawn) | * (activity 100-200% of VX-809 (1 uM) with compound at 10 uM and VX-809 at 1 uM)
C[C@@H](O)c1nnc([C@H]2C[C@@H](NC(=O)c3cc(-c4cccc(F)c4)on3)C2)o1 | * (activity 100-200% of VX-809 (1 uM) with compound at 10 uM and VX-809 at 1 uM)
O=C(N[C@H]1C[C@@H](c2nnc([C@@H](O)CO)s2)C1)c1cc(-c2ccccc2)on1 | ** (activity ≥200% of VX-809 (1 uM) with compound at 10 uM and VX-809 at 1 uM)
O=C(NC1CCCC(n2cc(CO)nn2)C1)c1cc(-c2ccccc2)on1 (stereo not drawn) | * (activity 100-200% of VX-809 (1 uM) with compound at 10 uM and VX-809 at 1 uM)
C[C@H](O)c1noc([C@H]2C[C@@H](NC(=O)c3cc(-c4ccccc4)on3)C2)n1 | * (activity 100-200% of VX-809 (1 uM) with compound at 10 uM and VX-809 at 1 uM)
C[C@H](O)c1nnc(C[C@H]2C[C@H](NC(=O)c3cc(-c4ccccc4)on3)C2)o1 | ** (activity ≥200% of VX-809 (1 uM) with compound at 10 uM and VX-809 at 1 uM)
C[C@H](O)c1noc(C2CC(NC(=O)c3cc(-c4ccccc4)on3)C2)n1 (stereo partly drawn) | ** (activity ≥200% of VX-809 (1 uM) with compound at 10 uM and VX-809 at 1 uM)
C[C@@H](O)c1nnc(C2CCCC(NC(=O)c3cc(-c4ccccc4)on3)C2)o1 (stereo partly drawn) | * (activity 100-200% of VX-809 (1 uM) with compound at 10 uM and VX-809 at 1 uM)
CC(=O)O[C@H](C)c1nnc([C@H]2C[C@H](NC(=O)c3cc(-c4ccccc4)on3)C2)o1 | ** (activity ≥200% of VX-809 (1 uM) with compound at 10 uM and VX-809 at 1 uM)
O=C(N[C@H]1CC[C@@H](c2nnc(CO)o2)CC1)c1cc(-c2ccccc2)on1 | * (activity 100-200% of VX-809 (1 uM) with compound at 10 uM and VX-809 at 1 uM)
C[C@@H](O)c1ccn([C@H]2C[C@H](NC(=O)c3cc(-c4ccccc4)on3)C2)n1 | ** (activity ≥200% of VX-809 (1 uM) with compound at 10 uM and VX-809 at 1 uM)
O=C(NC1CC(n2ccc(CO)n2)C1)c1cc(-c2ccccc2)on1 (stereo not drawn) | ** (activity ≥200% of VX-809 (1 uM) with compound at 10 uM and VX-809 at 1 uM)
C[C@@H](O)c1nnc(C[C@H]2C[C@@H](NC(=O)c3cc(-c4ccccc4)on3)C2)o1 | ** (activity ≥200% of VX-809 (1 uM) with compound at 10 uM and VX-809 at 1 uM)
CC(C)CO[C@H](C)c1nnc([C@H]2C[C@H](NC(=O)c3cc(-c4ccccc4)on3)C2)o1 | * (activity 100-200% of VX-809 (1 uM) with compound at 10 uM and VX-809 at 1 uM)
C[C@@H](O)c1cn([C@H]2C[C@H](NC(=O)c3cc(-c4ccccc4)on3)C2)nn1 | ** (activity ≥200% of VX-809 (1 uM) with compound at 10 uM and VX-809 at 1 uM)
C[C@@H](O)c1cnn([C@H]2C[C@H](NC(=O)c3cc(-c4ccccc4)on3)C2)c1 | ** (activity ≥200% of VX-809 (1 uM) with compound at 10 uM and VX-809 at 1 uM)
C[C@H](O)c1nnc(CC2CC(NC(=O)c3cc(-c4ccccc4)on3)C2)o1 (stereo partly drawn) | * (activity 100-200% of VX-809 (1 uM) with compound at 10 uM and VX-809 at 1 uM)
C[C@@H](O)c1nnc([C@H]2C[C@@H](NC(=O)c3cc(-c4ccc(F)c(F)c4)on3)C2)o1 | * (activity 100-200% of VX-809 (1 uM) with compound at 10 uM and VX-809 at 1 uM)
C[C@@H](O)c1noc(C2CC(NC(=O)c3cc(-c4ccccc4)on3)C2)n1 (stereo partly drawn) | ** (activity ≥200% of VX-809 (1 uM) with compound at 10 uM and VX-809 at 1 uM)
C[C@@H](O)c1nnc([C@H]2C[C@@H](NC(=O)c3cc(-c4ccc(F)cc4F)on3)C2)o1 | * (activity 100-200% of VX-809 (1 uM) with compound at 10 uM and VX-809 at 1 uM)
C[C@H](O)c1nc([C@H]2C[C@@H](NC(=O)c3cc(-c4ccccc4)on3)C2)no1 | * (activity 100-200% of VX-809 (1 uM) with compound at 10 uM and VX-809 at 1 uM)
